Results reported in patent US20240041042A1, “1-(PYRIDYL)-5-AZINYLPYRAZOLE DERIVATIVES, AND THEIR USE FOR CONTROL OF UNDESIRED PLANT GROWTH” (Bayer Aktiengesellschaft, priority 2020, published 2024).
Values belong to the compound of their own block, whether it stands above or below them.

Experiments:
Assay type in all cases: in vivo
Oryza sativa (ORYSA) = conditions: crop plant compatibility, 80 g/ha, effect in comparison to untreated controls
How it was run: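 Greenhouse crops in sandy loam sprayed post-emergence at the one-leaf stage, 2–3 weeks after sowing, with WP or EC formulations in water plus 0.5% additive at 600 l/ha. Damage rated visually about 3 weeks later versus untreated controls (0% = like control, 100% = dead); suffixes a–c denote different doses.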

[1] = tested on: Alopecurus myosuroides (ALOMY); test: Post-emergence herbicidal action against ALOMY; conditions: visual rating about 3 weeks after treatment vs untreated controls (100% = plants have died, 0% = like control plants)
How it was run: (§1)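 Greenhouse plants sprayed at the one-leaf stage, 2–3 weeks after sowing, with WP or EC formulations plus 0.5% additive at 600 l/ha water. Activity rated visually after about 3 weeks versus untreated controls (100% = dead, 0% = like control), at 320 g/ha or lower.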

[2] = tested on: Echinochloa crus-galli (ECHCG); test: Pre-emergence herbicidal action against ECHCG
How it was run: (§2)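 Read-out is visual percent damage relative to untreated pots, with 100% meaning dead plants and 0% meaning no difference, assessed roughly three weeks after treatment. Compounds were applied pre-emergence to the covering soil at up to 320 g/ha.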

[3] = tested on: Polygonum convolvulus (POLCO); test: Pre-emergence herbicidal action against POLCO
How it was run: as §2

[4] = tested on: Alopecurus myosuroides (ALOMY); test: Pre-emergence herbicidal action against ALOMY; conditions: scored visually after about 3 weeks, 100% = plants have died
How it was run: as §2

Viola tricolor (VIOTR) [5] = test: Pre-emergence herbicidal action against VIOTR
How it was run: as §2

[6] = tested on: Abutilon theophrasti (ABUTH); test: Pre-emergence herbicidal action against ABUTH; conditions: 100% = plants have died
How it was run: as §2

[7] = tested on: Matricaria inodora (MATIN); test: Pre-emergence herbicidal action against MATIN
How it was run: as §2

[8] = tested on: Echinochloa crus-galli (ECHCG); test: Post-emergence herbicidal action against ECHCG
How it was run: as §1

[9] = tested on: Matricaria inodora (MATIN); test: Post-emergence herbicidal action against MATIN; conditions: dosage 320 g/ha
How it was run: as §1

Avena fatua (AVEFA) [10] = test: Pre-emergence herbicidal action against AVEFA; conditions: visual scoring after about 3 weeks vs untreated controls
How it was run: as §2

Lolium rigidum (LOLRI) [11] = test: Pre-emergence herbicidal action against LOLRI
How it was run: as §2

[12] = tested on: Abutilon theophrasti (ABUTH); test: Post-emergence herbicidal action against ABUTH; conditions: visual rating about 3 weeks after treatment vs untreated controls (100% = plants have died, 0% = like control plants)
How it was run: as §1

[13] = tested on: Pharbitis purpurea (PHBPU); test: Pre-emergence herbicidal action against PHBPU
How it was run: as §2

Avena fatua (AVEFA) [14] = test: Post-emergence herbicidal action against AVEFA; conditions: visual rating about 3 weeks after treatment
How it was run: as §1

[15] = tested on: Verconica persica (VERPE); test: Post-emergence herbicidal action against VERPE
How it was run: as §1

[16] = tested on: Pharbitis purpurea (PHBPU); test: Post-emergence herbicidal action against PHBPU
How it was run: as §1

[17] = tested on: Amaranthus retroflexus (AMARE); test: Pre-emergence herbicidal action against AMARE; conditions: visual scoring after about 3 weeks vs untreated controls
How it was run: as §2

[18] = tested on: Verconica persica (VERPE); test: Pre-emergence herbicidal action against VERPE
How it was run: as §2

Setaria viridis (SETVI) [19] = test: Pre-emergence herbicidal action against SETVI
How it was run: as §2

[20] = tested on: Amaranthus retroflexus (AMARE); test: Post-emergence herbicidal action against AMARE
How it was run: as §1

Setaria viridis (SETVI) [21] = test: Post-emergence herbicidal action against SETVI
How it was run: as §1

Lolium rigidum (LOLRI) [22] = test: Post-emergence herbicidal action against LOLRI
How it was run: as §1

Viola tricolor (VIOTR) [23] = test: Post-emergence herbicidal action against VIOTR
How it was run: as §1

[24] = tested on: Polygonum convolvulus (POLCO); test: Post-emergence herbicidal action against POLCO
How it was run: as §1

[25] = Dosage column 320 g/ha (title prints 3200 g/ha), scored visually after about 3 weeks
[26] = 320 g/ha, visual rating about 3 weeks after treatment

- Post-emergence action against ORYSA in % (Oryza sativa (ORYSA)): 20%
Compound: COC(=O)C(C)COC(=O)[C@@H](C)Oc1nn(-c2ccccn2)c(-c2cncc(F)c2)c1Br (stereo partly shown) [Example I-188]
- Post-emergence action against ALOMY in % ([1]; 80 g/ha): 80%
- Post-emergence action against ALOMY in % ([1]; 320 g/ha): 90%
- Pre-emergence action against ECHCG in % ([2]; dosage 80 g/ha): 100%
- Pre-emergence action against ECHCG in % ([2]; dosage 320 g/ha): 100%
- Pre-emergence action against POLCO in % ([3]; dosage 80 g/ha): 90%
- Pre-emergence action against POLCO in % ([3]; dosage 320 g/ha): 90%
- Pre-emergence action against ALOMY ([4]; 80 g/ha): 90%
- Pre-emergence action against ALOMY ([4]; 320 g/ha): 100%
- Pre-emergence action against VIOTR in % (Viola tricolor (VIOTR) [5]; 320 g/ha, Viola tricolor): 100%
- Pre-emergence action against VIOTR in % (Viola tricolor (VIOTR) [5]; dosage 80 g/ha): 100%
- Pre-emergence action against ABUTH ([6]; 80 g/ha, scored visually after about 3 weeks vs untreated controls, 0% = like control plants): 80%
- Pre-emergence action against ABUTH [6, 25]: 90%
- Pre-emergence action against MATIN in % ([7]; dosage 80 g/ha): 90%
- Pre-emergence action against MATIN in % ([7]; dosage 320 g/ha): 90%
- Post-emergence action against ECHCG in % ([8]; dosage 80 g/ha): 80%
- Post-emergence action against ECHCG in % ([8]; dosage 320 g/ha): 90%
- Post-emergence action against MATIN in % [9]: 80%
- Pre-emergence action against AVEFA in % (Avena fatua (AVEFA) [10]; 80 g/ha): 80%
- Pre-emergence action against AVEFA in % (Avena fatua (AVEFA) [10]; 320 g/ha): 90%
- Pre-emergence action against LOLRI in % (Lolium rigidum (LOLRI) [11]; dosage 80 g/ha): 100%
- Pre-emergence action against LOLRI in % (Lolium rigidum (LOLRI) [11]; dosage 320 g/ha): 100%
- Post-emergence action against ABUTH in % ([12]; 80 g/ha): 80%
- Post-emergence action against ABUTH in % ([12]; 320 g/ha): 80%
- Pre-emergence action against PHBPU in % ([13]; dosage 80 g/ha): 80%
- Pre-emergence action against PHBPU in % ([13]; dosage 320 g/ha): 90%
- Post-emergence action against AVEFA in % (Avena fatua (AVEFA) [14]; 80 g/ha): 80%
- Post-emergence action against AVEFA in % (Avena fatua (AVEFA) [14]; 320 g/ha): 80%
- Post-emergence action against VERPE in % ([15]; 320 g/ha, VERPE): 90%
- Post-emergence action against VERPE in % ([15]; dosage 80 g/ha): 80%
- Post-emergence action against PHBPU in % ([16]; dosage 80 g/ha): 90%
- Post-emergence action against PHBPU in % ([16]; dosage 320 g/ha): 90%
- Pre-emergence action against AMARE in % ([17]; 80 g/ha): 100%
- Pre-emergence action against AMARE in % ([17]; 320 g/ha): 100%
- Pre-emergence action against VERPE in % ([18]; dosage 80 g/ha): 100%
- Pre-emergence action against VERPE in % ([18]; dosage 320 g/ha): 100%
- Pre-emergence action against SETVI in % (Setaria viridis (SETVI) [19]; dosage 80 g/ha): 100%
- Pre-emergence action against SETVI in % (Setaria viridis (SETVI) [19]; dosage 320 g/ha): 100%
- Post-emergence action against AMARE in % [20, 26]: 80%
- Post-emergence action against SETVI in % (Setaria viridis (SETVI) [21]; dosage 80 g/ha): 80%
- Post-emergence action against SETVI in % (Setaria viridis (SETVI) [21]; dosage 320 g/ha): 80%
- Post-emergence action against LOLRI in % (Lolium rigidum (LOLRI) [22]; dosage 80 g/ha): 90%
- Post-emergence action against LOLRI in % (Lolium rigidum (LOLRI) [22]; dosage 320 g/ha): 90%
- Post-emergence action against VIOTR in % (Viola tricolor (VIOTR) [23]; 80 g/ha): 80%
- Post-emergence action against VIOTR in % (Viola tricolor (VIOTR) [23]; 320 g/ha): 80%
- Post-emergence action against POLCO in % ([24]; dosage 80 g/ha): 80%
- Post-emergence action against POLCO in % ([24]; dosage 320 g/ha): 80%

Compound: COC(=O)[C@@H](C)Oc1nn(-c2ncccc2F)c(-c2ccc(F)nc2)c1C1CC1 [Example I-307]
- Post-emergence action against ALOMY in % ([1]; 80 g/ha): 100%
- Post-emergence action against ALOMY in % ([1]; 320 g/ha): 100%
- Pre-emergence action against ECHCG in % ([2]; dosage 80 g/ha): 100%
- Pre-emergence action against ECHCG in % ([2]; dosage 320 g/ha): 100%
- Pre-emergence action against POLCO in % ([3]; dosage 80 g/ha): 90%
- Pre-emergence action against POLCO in % ([3]; dosage 320 g/ha): 100%
- Pre-emergence action against ALOMY ([4]; 80 g/ha): 80%
- Pre-emergence action against ALOMY ([4]; 320 g/ha): 90%
- Pre-emergence action against VIOTR in % (Viola tricolor (VIOTR) [5]; 320 g/ha, Viola tricolor): 100%
- Pre-emergence action against VIOTR in % (Viola tricolor (VIOTR) [5]; dosage 80 g/ha): 100%
- Pre-emergence action against ABUTH [6, 25]: 80%
- Pre-emergence action against MATIN in % ([7]; dosage 80 g/ha): 90%
- Pre-emergence action against MATIN in % ([7]; dosage 320 g/ha): 100%
- Post-emergence action against ECHCG in % ([8]; dosage 80 g/ha): 90%
- Post-emergence action against ECHCG in % ([8]; dosage 320 g/ha): 90%
- Post-emergence action against MATIN in % [9]: 80%
- Pre-emergence action against AVEFA in % (Avena fatua (AVEFA) [10]; 80 g/ha): 90%
- Pre-emergence action against AVEFA in % (Avena fatua (AVEFA) [10]; 320 g/ha): 100%
- Pre-emergence action against LOLRI in % (Lolium rigidum (LOLRI) [11]; dosage 80 g/ha): 100%
- Pre-emergence action against LOLRI in % (Lolium rigidum (LOLRI) [11]; dosage 320 g/ha): 100%
- Post-emergence action against ABUTH in % ([12]; 320 g/ha): 90%
- Pre-emergence action against PHBPU in % ([13]; dosage 320 g/ha): 90%
- Post-emergence action against AVEFA in % (Avena fatua (AVEFA) [14]; 80 g/ha): 90%
- Post-emergence action against AVEFA in % (Avena fatua (AVEFA) [14]; 320 g/ha): 90%
- Post-emergence action against VERPE in % ([15]; 320 g/ha, VERPE): 90%
- Post-emergence action against VERPE in % ([15]; dosage 80 g/ha): 90%
- Post-emergence action against PHBPU in % ([16]; dosage 80 g/ha): 80%
- Post-emergence action against PHBPU in % ([16]; dosage 320 g/ha): 90%
- Pre-emergence action against AMARE in % ([17]; 80 g/ha): 100%
- Pre-emergence action against AMARE in % ([17]; 320 g/ha): 100%
- Pre-emergence action against VERPE in % ([18]; dosage 80 g/ha): 90%
- Pre-emergence action against VERPE in % ([18]; dosage 320 g/ha): 100%
- Pre-emergence action against SETVI in % (Setaria viridis (SETVI) [19]; dosage 80 g/ha): 100%
- Pre-emergence action against SETVI in % (Setaria viridis (SETVI) [19]; dosage 320 g/ha): 100%
- Post-emergence action against AMARE in % ([20]; 80 g/ha, visual rating about 3 weeks after treatment vs untreated controls (100% = plants have died, 0% = like control plants)): 80%
- Post-emergence action against AMARE in % [20, 26]: 90%
- Post-emergence action against SETVI in % (Setaria viridis (SETVI) [21]; dosage 80 g/ha): 90%
- Post-emergence action against SETVI in % (Setaria viridis (SETVI) [21]; dosage 320 g/ha): 90%
- Post-emergence action against LOLRI in % (Lolium rigidum (LOLRI) [22]; dosage 80 g/ha): 100%
- Post-emergence action against LOLRI in % (Lolium rigidum (LOLRI) [22]; dosage 320 g/ha): 100%
- Post-emergence action against VIOTR in % (Viola tricolor (VIOTR) [23]; 80 g/ha): 80%
- Post-emergence action against VIOTR in % (Viola tricolor (VIOTR) [23]; 320 g/ha): 90%
- Post-emergence action against POLCO in % ([24]; dosage 80 g/ha): 80%
- Post-emergence action against POLCO in % ([24]; dosage 320 g/ha): 80%
